Assay results published in paper PMC9658052, “Virtual Screening and Biological Activity Evaluation of New Potent Inhibitors Targeting Hexokinase-II” (Molecules, 2022).
Where two headings read alike, the source gives them in different places.

Key:
[1] = tested on: A549 cells; assay: MTT cytotoxicity assay, A549; assay type: cell-based; details: Homo sapiens, 48 h, read-out: IC50 (toxicity) A549
Protocol: (§1) Initially, we adopted the MTT assay to screen the cytotoxicity of all compounds toward three different types of cancer cell lines (HeLa, HepG 2 and A549). […] The chemical structures of the selected compounds are depicted in Figure 2.
(§2) HeLa, Hep G2, and A549 cells were purchased from the Shanghai Institute of Biochemistry and Cell Biology, Chinese Academy of Sciences. All cells were cultured in DMEM with 100 units/mL penicillin/streptomycin, 2 mM glutamine, and 10% FBS in a carbon dioxide atmosphere at 37 °C.
(§3) Cytotoxicity was quantified using a standard MTT assay, which is widely used in evaluating cell proliferation and screening for anticancer drugs. Briefly, following 7 × 10^3 cells incubating in 96-well plates for 48 h filled with DMEM medium supplemented with 10% fetal bovine serum (FBS) containing different concentrations of samples, 10 μL/well of MTT (5 mg/mL) was added. After 4 h of incubation at 37 °C, 100 μL of extraction buffer containing 5% iso-butanol, 0.1% HCl, and 10% SDS was added, and then the cells were incubated overnight. As controls, cells were treated with 0.1% (v/v) DMSO alone. The cell viability was calculated by the absorbance (570 nm) of each well obtained using a microplate reader (Thermo Scientific Multiskan GO, Vantaa, Finland).

[2] = tested on: HeLa cells; assay: MTT cytotoxicity assay, HeLa; assay type: cell-based; details: Homo sapiens, 48 h, read-out: IC50 (toxicity) Hela
Protocol: as §1, §2, §3

[3] = tested on: HepG 2 cells; assay: MTT cytotoxicity assay, HepG 2; assay type: cell-based; details: Homo sapiens, HepG2, 48 h, read-out: IC50 (toxicity) HepG 2
Protocol: as §1, §2, §3

[4] = tested on: HK-II; details: cited from earlier work
[5] = design: method as in PMID 20215500, PMID 16044218; details: mice, dose range from 500 mg/Kg to 2000 mg/Kg; cited from earlier work
[6] = molecular target: T1, Hexokinase-II enzyme (Homo sapiens, UniProt P52789); assay: Hexokinase-II inhibitor screening kit (enzyme activity); assay type: biochemical; details: compound 1 to 128 μM
T1 construct: purchased Abcam ab211114
T1 sequence (P52789 1-917): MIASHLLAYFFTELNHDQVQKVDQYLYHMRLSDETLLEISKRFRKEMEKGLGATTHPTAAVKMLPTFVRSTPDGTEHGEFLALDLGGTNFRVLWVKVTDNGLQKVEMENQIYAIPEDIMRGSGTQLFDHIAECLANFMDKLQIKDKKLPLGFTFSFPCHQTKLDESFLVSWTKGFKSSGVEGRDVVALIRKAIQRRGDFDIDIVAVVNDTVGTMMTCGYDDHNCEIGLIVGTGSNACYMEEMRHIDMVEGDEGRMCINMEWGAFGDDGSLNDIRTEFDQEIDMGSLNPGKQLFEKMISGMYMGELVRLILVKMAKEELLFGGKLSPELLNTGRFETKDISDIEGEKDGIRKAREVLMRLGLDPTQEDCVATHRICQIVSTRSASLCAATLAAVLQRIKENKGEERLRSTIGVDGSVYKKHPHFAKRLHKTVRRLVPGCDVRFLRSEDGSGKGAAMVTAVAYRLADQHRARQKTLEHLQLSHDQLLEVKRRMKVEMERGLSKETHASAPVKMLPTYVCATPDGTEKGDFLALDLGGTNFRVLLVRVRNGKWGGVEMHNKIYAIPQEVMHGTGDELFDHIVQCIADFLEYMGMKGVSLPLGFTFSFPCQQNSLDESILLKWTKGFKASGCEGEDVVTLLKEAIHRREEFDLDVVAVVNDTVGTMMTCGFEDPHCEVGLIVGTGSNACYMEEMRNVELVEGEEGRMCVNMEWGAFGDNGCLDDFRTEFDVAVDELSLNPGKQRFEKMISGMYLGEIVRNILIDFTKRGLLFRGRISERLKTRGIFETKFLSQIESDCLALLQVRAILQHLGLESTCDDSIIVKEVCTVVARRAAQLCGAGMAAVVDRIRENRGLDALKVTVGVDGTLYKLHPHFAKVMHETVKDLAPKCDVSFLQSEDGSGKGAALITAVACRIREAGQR
Protocol: Since nine compounds display the highest cytotoxicity to three different cancer cells, we then verified the effects of the compounds on Hexokinase-II activity.
Figure 3 Inhibition of compounds 4244-3659 and K611-0094 on Hexokinase-II activity. […] All data were expressed as mean ± SE from three independent experiments. ** p < 0.01 vs. the control groups.
The Hexokinase-II activity was tested via a Hexokinase-II inhibitor screening kit (Abcam, Cambridge, UK, ab211114), and all experiments were carried out following the manufacturer’s instructions. […] HK assay buffer was treated as negative control, bromopyruvic acid was used for positive controls, and DMSO was used as a solvent control. The value of OD at 450 nm at 15 min and 25 min was recorded. IC50 values were calculated in GraphPad Prism 5.

[7] = 5 min at 25 °C preincubation, read-out: EC50, inhibitory effect on HK-II enzyme activity
[8] = read-out: IC50 on Hexokinase-II enzyme

Compound	IC50 [1]	IC50 [2]	IC50 [3]	IC50 [6, 7]	also measured
CC(=O)c1c(C)[nH]c2ccc(OC[C@@H](O)CNCCc3ccccc3)cc12 [D016-0099]	50.4 ± 0.3 µM	48.5 ± 1.2 µM	44.2 ± 0.6 µM	–	–
CN(C)C(=N)N=C(N)N [metformin]	–	–	–	–	IC50 ([4]; weak inhibitory effect, read-out: IC50 against HK-II): > 10000 µM
O=CC[C@@H](O)[C@H](O)[C@H](O)CO [2-Deoxyglucose (2-DG), 2-Deoxyglucose]	–	–	–	–	therapeutic effect of a single agent [5]: no significant therapeutic effect
Nc1nc(SCC(=O)Nc2cccc([N+](=O)[O-])c2)sc1C(=O)Nc1nccs1 [K611-0094]	48.8 ± 1.2 µM	47.8 ± 0.6 µM	57.9 ± 1.7 µM	45 ± 1.1 µM	IC50 [6, 8]: 45 ± 1.1 µM
CN1C(=O)[C@](O)(CC(=O)c2cc(O)ccc2O)c2ccccc21 [4244-3659]	54.6 ± 2.6 µM	62.1 ± 2 µM	62.5 ± 2.1 µM	17.5 ± 1.4 µM	IC50 [6, 8]: 17.5 ± 1.4 µM
O=C(N/N=C/c1ccc(Cl)c(Cl)c1)c1cc(O)c(O)c(O)c1 [AK-968/41922716]	31 µM	28.5 ± 1.9 µM	40 ± 0.2 µM	–	–
CCOC(=O)c1c(C)n(C)c2ccc(OC[C@H](O)CN[C@H](CC)CO)cc12 [6913-0012]	62.6 ± 0.7 µM	51.9 ± 1.5 µM	59 ± 0.2 µM	–	–
O=C(O)C(=O)CBr [3-Bromopyruvate (3-BrPA), 3-Bromopyruvate]	–	–	–	–	inhibitory action against HK-II [4]: moderate inhibitory action
€-4-Nitro-N′-(2,3,4-trihydroxybenzylidene)	–	–	–	–	IC50 ([4]; read-out: enzyme activity (HK2 inhibitor)): 0.53 ± 0.13 µM
Cc1ccc(C(C)C)c(OC[C@H](O)CNCc2ccccc2)c1 [AP-124/43383769]	36.5 ± 0.4 µM	25.1 ± 0.9 µM	23.3 µM	104 ± 1.1 µM	–
O[C@H](CNCc1ccccc1)COc1cccc2ccccc12 [AO-423/13128074]	38.6 ± 0.8 µM	27.7 ± 0.6 µM	30 ± 1.4 µM	> 128 µM	–
O=C(CSc1nc2c(sc3ccccc32)c(=O)n1Cc1cccnc1)Nc1ccc(O)c(O)c1 [K263-0793]	27.1 ± 1.4 µM	22.4 ± 1.4 µM	22.1 ± 0.9 µM	> 128 µM	–
